Data on three compounds can be found in article PMC10104807, “Modulation of tau tubulin kinases (TTBK1 and TTBK2) impacts ciliogenesis” (Scientific Reports, 2023).

What all share (assay): DiscoverX scanMAX binding assay
Settings in all cases: 1 μM

One assay deals with T1, PIP5K1C (Homo sapiens, UniProt O60331).
T1 construct: purchased Eurofins (radiometric) / Eurofins DiscoverX scanMAX / Reaction Biology / SignalChem
An excerpt:
(§1) This panel includes 403 wild-type (WT) human kinases but not TTBK1/2. […] Substantial overlap between the MRC and DiscoverX scanMAX kinase panels allows the comparison of results for the same kinases in two different assay formats (enzymatic versus binding, respectively) at the same concentration. Selectivity results are included in two columns within Table 1. […] The rightmost column converts this selectivity score into the number of kinases with a PoC < 10 in the scanMAX panel.
(§2) The Eurofins DiscoverX Corporation scanMAX assay platform was employed to assess the selectivity of specific analogs at a single concentration (1 µM). As described previously, this assay platform profiles a compound against 403 wild-type human kinases and delivers percent of control (PoC) values. These percent of control values are included in Table 1 and corresponding kinome tree diagrams as well as tables for each analog included in Fig. S1.

The target in a further assay is T2, YSK4 (Homo sapiens, UniProt Q56UN5).
T2 construct: purchased Eurofins (radiometric) / Eurofins DiscoverX scanMAX / Reaction Biology / SignalChem
T2 sequence (Q56UN5 1-1328): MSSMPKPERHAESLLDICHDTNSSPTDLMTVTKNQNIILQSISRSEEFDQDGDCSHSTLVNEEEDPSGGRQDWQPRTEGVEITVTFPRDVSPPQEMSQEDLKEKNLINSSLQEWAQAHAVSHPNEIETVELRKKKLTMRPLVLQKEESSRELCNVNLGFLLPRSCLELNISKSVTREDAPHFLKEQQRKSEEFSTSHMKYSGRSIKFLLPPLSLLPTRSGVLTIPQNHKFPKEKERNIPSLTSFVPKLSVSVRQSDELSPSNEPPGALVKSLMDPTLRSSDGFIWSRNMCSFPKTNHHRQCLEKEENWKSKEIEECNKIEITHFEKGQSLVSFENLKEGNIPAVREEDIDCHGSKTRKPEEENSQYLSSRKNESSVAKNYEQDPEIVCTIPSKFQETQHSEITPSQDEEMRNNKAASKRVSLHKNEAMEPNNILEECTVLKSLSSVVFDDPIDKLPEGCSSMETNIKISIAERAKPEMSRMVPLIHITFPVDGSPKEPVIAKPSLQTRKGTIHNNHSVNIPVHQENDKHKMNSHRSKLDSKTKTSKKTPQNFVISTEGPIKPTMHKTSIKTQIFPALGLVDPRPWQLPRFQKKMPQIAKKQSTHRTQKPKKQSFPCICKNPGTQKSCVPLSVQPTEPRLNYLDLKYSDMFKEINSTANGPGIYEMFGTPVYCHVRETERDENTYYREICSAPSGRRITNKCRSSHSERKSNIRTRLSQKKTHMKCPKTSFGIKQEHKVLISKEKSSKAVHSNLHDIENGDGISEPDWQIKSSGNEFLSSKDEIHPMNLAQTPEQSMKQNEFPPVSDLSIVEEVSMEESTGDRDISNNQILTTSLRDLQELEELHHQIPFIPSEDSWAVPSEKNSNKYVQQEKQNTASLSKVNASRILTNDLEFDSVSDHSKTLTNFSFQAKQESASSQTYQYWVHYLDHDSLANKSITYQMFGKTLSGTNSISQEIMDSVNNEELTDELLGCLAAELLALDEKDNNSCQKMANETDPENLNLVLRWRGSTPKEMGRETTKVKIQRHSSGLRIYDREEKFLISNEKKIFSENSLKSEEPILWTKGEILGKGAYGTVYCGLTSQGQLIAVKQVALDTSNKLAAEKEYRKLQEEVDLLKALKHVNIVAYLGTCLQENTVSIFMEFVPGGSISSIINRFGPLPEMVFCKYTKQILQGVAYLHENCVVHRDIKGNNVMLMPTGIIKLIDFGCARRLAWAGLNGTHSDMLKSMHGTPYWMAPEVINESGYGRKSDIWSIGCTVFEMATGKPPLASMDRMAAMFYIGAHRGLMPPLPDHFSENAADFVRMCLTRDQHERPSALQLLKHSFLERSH
Source text: as §1, §2

In a further assay the target is T3, TAOK2 (Homo sapiens, UniProt Q9UL54).
T3 construct: purchased Eurofins
T3 sequence (Q9UL54 1-1235): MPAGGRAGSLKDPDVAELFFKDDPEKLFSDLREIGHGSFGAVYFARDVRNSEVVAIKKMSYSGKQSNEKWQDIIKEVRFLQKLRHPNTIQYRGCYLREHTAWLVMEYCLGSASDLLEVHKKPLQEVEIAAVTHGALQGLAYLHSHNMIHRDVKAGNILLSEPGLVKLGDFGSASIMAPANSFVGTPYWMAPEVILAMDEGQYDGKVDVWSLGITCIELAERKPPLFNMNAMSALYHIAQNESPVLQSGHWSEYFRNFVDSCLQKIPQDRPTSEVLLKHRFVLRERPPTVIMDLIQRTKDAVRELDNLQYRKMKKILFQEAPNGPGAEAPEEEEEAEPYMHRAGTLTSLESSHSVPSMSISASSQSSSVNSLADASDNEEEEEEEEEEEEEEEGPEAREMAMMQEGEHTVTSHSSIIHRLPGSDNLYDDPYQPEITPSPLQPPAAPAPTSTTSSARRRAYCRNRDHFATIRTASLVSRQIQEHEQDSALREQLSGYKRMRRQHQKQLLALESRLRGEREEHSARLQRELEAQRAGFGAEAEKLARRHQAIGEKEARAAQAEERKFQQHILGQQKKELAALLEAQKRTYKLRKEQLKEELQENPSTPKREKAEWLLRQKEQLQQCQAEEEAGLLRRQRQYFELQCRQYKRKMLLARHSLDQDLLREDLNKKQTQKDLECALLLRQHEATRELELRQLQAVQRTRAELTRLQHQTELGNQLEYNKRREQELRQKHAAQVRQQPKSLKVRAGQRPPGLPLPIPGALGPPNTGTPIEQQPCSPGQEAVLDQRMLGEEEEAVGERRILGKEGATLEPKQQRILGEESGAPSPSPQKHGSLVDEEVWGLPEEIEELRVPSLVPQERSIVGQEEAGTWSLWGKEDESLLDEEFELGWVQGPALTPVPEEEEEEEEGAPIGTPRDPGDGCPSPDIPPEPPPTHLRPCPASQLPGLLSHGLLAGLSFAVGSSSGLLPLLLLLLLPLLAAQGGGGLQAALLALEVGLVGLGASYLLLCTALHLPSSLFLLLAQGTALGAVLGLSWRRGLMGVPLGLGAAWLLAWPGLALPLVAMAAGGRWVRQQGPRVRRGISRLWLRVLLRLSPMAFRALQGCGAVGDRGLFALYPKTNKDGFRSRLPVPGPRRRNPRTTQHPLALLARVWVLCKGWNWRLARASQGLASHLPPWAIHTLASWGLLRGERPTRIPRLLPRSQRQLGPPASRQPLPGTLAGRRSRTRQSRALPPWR
Source text: as §1, §2

T1 sequence (O60331 whole entry): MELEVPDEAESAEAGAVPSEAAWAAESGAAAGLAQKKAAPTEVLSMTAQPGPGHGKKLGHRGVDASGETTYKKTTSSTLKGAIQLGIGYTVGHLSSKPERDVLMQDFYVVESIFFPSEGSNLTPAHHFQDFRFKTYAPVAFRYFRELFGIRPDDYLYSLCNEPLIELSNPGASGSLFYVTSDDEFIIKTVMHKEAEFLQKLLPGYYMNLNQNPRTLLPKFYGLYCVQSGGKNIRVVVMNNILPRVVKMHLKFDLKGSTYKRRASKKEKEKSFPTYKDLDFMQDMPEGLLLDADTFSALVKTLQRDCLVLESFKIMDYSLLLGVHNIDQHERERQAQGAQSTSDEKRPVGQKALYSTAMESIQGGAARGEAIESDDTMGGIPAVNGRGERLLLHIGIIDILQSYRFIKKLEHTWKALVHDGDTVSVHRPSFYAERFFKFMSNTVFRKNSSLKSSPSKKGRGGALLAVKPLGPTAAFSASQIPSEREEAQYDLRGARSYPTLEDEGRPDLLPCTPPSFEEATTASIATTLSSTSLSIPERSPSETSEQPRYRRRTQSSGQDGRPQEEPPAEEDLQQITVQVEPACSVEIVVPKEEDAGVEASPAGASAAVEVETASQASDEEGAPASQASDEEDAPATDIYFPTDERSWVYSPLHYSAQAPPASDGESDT

Regarding `CC(C)(O)C#Cc1ccc2[nH]c3c(c2c1)-c1nc(N)ncc1CCC3` [AMG28, reference compound], the “PIP5K1C % control at 1000nM / DiscoverX PoC value” on PIP5K1C was 3.1 % control. In addition, the “YSK4 % control at 1000nM / DiscoverX PoC value” at YSK4 is 0 % control. Further, at TAOK2, the “TAOK2 % control at 1000nM / DiscoverX PoC value” came to 3.5 % control.
Regarding `CC(C)(O)C#Cc1ccc2[nH]c3c(c2c1)-c1nc(N)ncc1CC3` [Compound 1], at PIP5K1C, the “PIP5K1C % control at 1000nM / DiscoverX PoC value” is recorded as 0.5 % control. Further, the “YSK4 % control at 1000nM / DiscoverX PoC value” at YSK4 is on record as 0 % control. Also, the “TAOK2 % control at 1000nM / DiscoverX PoC value” at TAOK2 amounted to 1.5 % control.
Consider `CC(C)(O)C#Cc1ccc2[nH]cc(-c3ccnc(N)n3)c2c1` [Compound 3], for which the “PIP5K1C % control at 1000nM / DiscoverX PoC value” at PIP5K1C was 0.4 % control. Besides, the “YSK4 % control at 1000nM / DiscoverX PoC value” on YSK4 was determined as 0 % control. On TAOK2, the “TAOK2 % control at 1000nM / DiscoverX PoC value” came out at 1.3 % control.
